biological target: T1, Axl (Homo sapiens, UniProt P30530); experiment: Phospho-Akt in-cell Western assay (inhibition of Axl activity); type: cell-based; conditions: Table 3; Hela cells, Axl antibody cross-linking stimulation, phospho-Akt chemiluminescence
T1 construct: endogenous in cells; host or cells: HeLa cells
T1 sequence (P30530 26-894): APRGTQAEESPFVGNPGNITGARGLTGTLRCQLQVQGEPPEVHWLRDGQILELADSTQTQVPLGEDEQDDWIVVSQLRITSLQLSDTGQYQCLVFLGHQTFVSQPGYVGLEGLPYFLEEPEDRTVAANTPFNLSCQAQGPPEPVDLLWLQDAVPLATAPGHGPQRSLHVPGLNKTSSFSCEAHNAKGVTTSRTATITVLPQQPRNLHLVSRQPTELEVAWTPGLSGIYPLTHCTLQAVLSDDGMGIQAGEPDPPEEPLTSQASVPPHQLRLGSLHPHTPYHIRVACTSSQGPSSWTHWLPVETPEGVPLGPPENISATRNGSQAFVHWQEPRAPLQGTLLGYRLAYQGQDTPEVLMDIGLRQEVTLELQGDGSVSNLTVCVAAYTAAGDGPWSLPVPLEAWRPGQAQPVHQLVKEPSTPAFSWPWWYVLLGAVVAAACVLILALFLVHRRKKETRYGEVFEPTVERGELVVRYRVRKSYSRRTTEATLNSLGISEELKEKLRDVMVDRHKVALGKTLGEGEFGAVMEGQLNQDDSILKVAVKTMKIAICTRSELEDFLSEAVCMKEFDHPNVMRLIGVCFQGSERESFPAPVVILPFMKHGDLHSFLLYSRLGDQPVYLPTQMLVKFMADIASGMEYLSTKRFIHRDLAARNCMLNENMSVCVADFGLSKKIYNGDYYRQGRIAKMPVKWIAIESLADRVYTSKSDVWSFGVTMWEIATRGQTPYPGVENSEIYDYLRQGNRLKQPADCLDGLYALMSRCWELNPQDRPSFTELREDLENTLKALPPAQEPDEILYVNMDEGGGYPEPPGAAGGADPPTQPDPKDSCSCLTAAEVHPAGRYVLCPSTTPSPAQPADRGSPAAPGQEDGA
Method in brief: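 HeLa cells on poly-L-lysine, starved 24 h in 0.5% FCS DMEM with Axl/Fc 500 ng/mL, pre-treated with compound 1 h at 37° C. Axl stimulated 5 min by anti-Axl/anti-mouse antibody cross-linking. Fixed cells probed with anti-phospho-Akt and HRP secondary, chemiluminescence read.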

IC50 | SMILES
< 1000 nM | Nc1nc(Nc2ccc(OCCN3CCCC3)cc2)nn1C(=O)c1ccc2[nH]ccc2c1 [compound #3, 5-Amino-1-(1H-indol-5-yl)carbonyl-3-[4-[2-(pyrrolidin-1-yl)ethoxy]phenylamino]-1H-1,2,4-triazole]
< 1000 nM | Nc1nc(Nc2ccc(OCCN3CCCC3)cc2)nn1C(=O)c1ccc2cc[nH]c2c1 [compound #5, 5-Amino-1-(1H-indol-6-yl)carbonyl-3-[4-[2-(pyrrolidin-1-yl)ethoxy]phenylamino]-1H-1,2,4-triazole]
< 1000 nM | Nc1nc(Nc2ccc(OCCN3CCCC3)cc2)nn1C(=O)c1cc2ccccc2[nH]1 [compound #6, 5-Amino-1-(1H-indol-2-yl)carbonyl-3-[4-[2-(pyrrolidin-1-yl)ethoxy]phenylamino]-1H-1,2,4-triazole]

same assay, conditions: Table 5; Hela cells, Axl antibody cross-linking stimulation, phospho-Akt chemiluminescence

IC50 | SMILES
> 20000 nM | CN(C)c1ccc(C(=O)n2nc(NC3CCN(S(C)(=O)=O)CC3)nc2N)cc1 [compound 395, 5-amino-1-(4-(dimethylamino)phenyl)carbonyl-3-(1-methylsulfonylpiperidin-4-yl)amino-1H-1,2,4-triazole]
> 20000 nM | CS(=O)(=O)N1CCC(Nc2nc(N)n(C(=O)c3ccc(N4CCOCC4)cc3)n2)CC1 [compound 399, 5-amino-1-(4-(morpholin-4-yl)phenyl)carbonyl-3-(1-methylsulfonylpiperidin-4-yl)amino-1H-1,2,4-triazole]

SMILES | IC50
CC(C)(C)Oc1ccc(C(=O)n2nc(NC3CCN(S(C)(=O)=O)CC3)nc2N)cc1 [compound 393, 5-amino-1-(4-(tert-butoxy)phenyl)carbonyl-3-(1-methylsulfonylpiperidin-4-yl)amino-1H-1,2,4-triazole] | > 20000 nM

same assay, conditions: Table 6; Hela cells, Axl antibody cross-linking stimulation, phospho-Akt chemiluminescence

IC50 | SMILES
> 20000 nM | CN(C)c1ccc(C(=O)n2nc(N)nc2NC2CCN(S(C)(=O)=O)CC2)cc1 [compound 396, 3-amino-1-(4-(dimethylamino)phenyl)carbonyl-5-(1-methylsulfonylpiperidin-4-yl)amino-1H-1,2,4-triazole]

same assay, conditions: Table 9; Hela cells, Axl antibody cross-linking stimulation, phospho-Akt chemiluminescence

IC50 | SMILES
> 20000 nM | CS(=O)(=O)N1CCC(Nc2nc(N)n(C(=O)c3ccc4c(c3)OCCO4)n2)CC1 [compound 397, 5-amino-1-(1,4-benzodioxan-6-yl)carbonyl-3-(1-methylsulfonylpiperidin-4-yl)amino-1H-1,2,4-triazole]

same assay, conditions: inhibition of Axl activity, phospho-Akt in-cell Western assay; Table 1

IC50 | SMILES
< 1000 nM | CN(C)c1ccc(C(=O)n2nc(Nc3ccc(OCCN4CCCCC4)cc3)nc2N)cc1 [compound #2, 5-Amino-1-(4-(dimethylamino)phenyl)carbonyl-3-[4-[2-(piperidin-1-yl)ethoxy]phenylamino]-1H-1,2,4-triazole]
< 1000 nM | CN(C)c1ccc(C(=O)n2nc(Nc3ccc(OCCN4CCCC4)cc3)nc2N)cc1 [compound #4, 5-Amino-1-(4-(dimethylamino)phenyl)carbonyl-3-[4-[2-(pyrrolidin-1-yl)ethoxy]phenylamino]-1H-1,2,4-triazole]
< 1000 nM | Nc1nc(Nc2ccc(OCCN3CCCC3)cc2)nn1C(=O)c1cccc(OC(F)(F)F)c1 [compound #7, 5-Amino-3-[4-[2-(pyrrolidin-1-yl)ethoxy]phenylamino]-1-(3-(trifluoromethoxy)phenyl)carbonyl-1H-1,2,4-triazole]
< 1000 nM | Cc1cccc(C(=O)n2nc(Nc3ccc(OCCN4CCCC4)cc3)nc2N)c1 [compound #9, 5-Amino-1-(3-methylphenyl)carbonyl-3-[4-[2-(pyrrolidin-1-yl)ethoxy]phenylamino]-1H-1,2,4-triazole]
< 1000 nM | CN(C)c1cccc(C(=O)n2nc(Nc3ccc(OCCN4CCCCC4)cc3)nc2N)c1 [compound #11, 5-Amino-1-(3-(dimethylamino)phenyl)carbonyl-3-[4-[2-(piperidin-1-yl)ethoxy]phenylamino]-1H-1,2,4-triazole]
< 1000 nM | Cc1ccc(C(=O)n2nc(Nc3ccc(OCCN4CCCC4)cc3)nc2N)cc1 [compound #12, 5-Amino-1-(4-methylphenyl)carbonyl-3-[4-[2-(pyrrolidin-1-yl)ethoxy]phenylamino]-1H-1,2,4-triazole]
< 1000 nM | Nc1nc(Nc2ccc(OCCN3CCCCC3)cc2)nn1C(=O)c1ccc2c(c1)OCO2 [compound #13, 5-Amino-1-(1,3-benzodioxol-5-yl)carbonyl-3-[4-[2-(piperidin-1-yl)ethoxy]phenylamino]-1H-1,2,4-triazole]
< 1000 nM | COc1cccc(C(=O)n2nc(Nc3ccc(OCCN4CCCC4)cc3)nc2N)c1 [compound #14, 5-Amino-1-(3-methoxyphenyl)carbonyl-3-[4-[2-(pyrrolidin-1-yl)ethoxy]phenylamino]-1H-1,2,4-triazole]
< 1000 nM | Nc1nc(Nc2ccc(OCCN3CCCC3)cc2)nn1C(=O)c1ccc2c(c1)OCO2 [compound #16, 5-Amino-1-(1,3-benzodioxol-5-yl)carbonyl-3-[4-[2-(pyrrolidin-1-yl)ethoxy]phenylamino]-1H-1,2,4-triazole]
< 1000 nM | Nc1nc(Nc2ccc(OCCN3CCCC3)cc2)nn1C(=O)c1ccc2c(c1)OCCO2 [compound #17, 5-Amino-1-(1,4-benzodioxan-6-yl)carbonyl-3-[4-[2-(pyrrolidin-1-yl)ethoxy]phenylamino]-1H-1,2,4-triazole]
< 1000 nM | COc1cc(OC)cc(C(=O)n2nc(Nc3ccc(OCCN4CCCCC4)cc3)nc2N)c1 [compound #19, 5-Amino-1-(3,5-(dimethoxy)phenyl)carbonyl-3-[4-[2-(piperidin-1-yl)ethoxy]phenylamino]-1H-1,2,4-triazole]
< 1000 nM | CN(C)c1cccc(C(=O)n2nc(Nc3ccc(OCCCN4CCCC4)cc3)nc2N)c1 [compound #20, 5-Amino-1-(3-(dimethylamino)phenyl)carbonyl-3-[4-[3-(pyrrolidin-1-yl)propoxy]phenylamino]-1H-1,2,4-triazole]
< 1000 nM | COc1ccc(C(=O)n2nc(Nc3ccc(OCCN4CCCCC4)cc3)nc2N)cc1OC [compound #21, 5-Amino-1-(3,4-(dimethoxy)phenyl)carbonyl-3-[4-[2-(piperidin-1-yl)ethoxy]phenylamino]-1H-1,2,4-triazole]

More lines, now with the values behind:

SMILES | IC50
Nc1nc(Nc2ccc(OCCN3CCCC3)cc2)nn1C(=O)c1ccc(N2CCS(=O)(=O)CC2)cc1 [compound 400, 5-amino-1-(4-(1,1-dioxo-thiomorpholin-4-yl)phenyl)carbonyl-3-[4-[2-(pyrrolidin-1-yl)ethoxy]phenylamino]-1H-1,2,4-triazole] | < 1000 nM
Nc1nc(Nc2ccc(OCCN3CCCC3)cc2)nn1C(=O)c1ccc(N2CCCCC2)cc1 [compound 401, 5-amino-1-(4-(piperidin-1-yl)phenyl)carbonyl-3-[4-[2-(pyrrolidin-1-yl)ethoxy]phenylamino]-1H-1,2,4-triazole] | < 1000 nM
Nc1nc(Nc2ccc(OCCN3CCCC3)c(Cl)c2)nn1C(=O)c1cc(Cl)cc(Cl)c1 [compound 402, 5-amino-3-[3-chloro-4-[2-(pyrrolidin-1-yl)ethoxy]phenylamino]-1-(3,5-dichlorophenyl)carbonyl-1H-1,2,4-triazole] | > 20000 nM
CC(C)(C)Oc1ccc(C(=O)n2nc(Nc3ccc(OCCN4CCCC4)cc3)nc2N)cc1 [compound #1, 5-Amino-3-[4-[2-(pyrrolidin-1-yl)ethoxy]phenylamino]-1-(4-(tert-butoxy)phenyl)carbonyl-1H-1,2,4-triazole] | < 1000 nM
CN(C)c1ccc(C(=O)n2nc(Nc3ccc(OCCCN4CCCC4)cc3)nc2N)cc1 [compound #8, 5-Amino-1-(4-(dimethylamino)phenyl)carbonyl-3-[4-[3-(pyrrolidin-1-yl)propoxy]phenylamino]-1H-1,2,4-triazole] | < 1000 nM
CC(C)Oc1ccc(C(=O)n2nc(Nc3ccc(OCCCN4CCCC4)cc3)nc2N)cc1 [compound #10, 5-Amino-1-(4-(iso-propoxy)phenyl)carbonyl-3-[4-[3-(pyrrolidin-1-yl)propoxy]phenylamino]-1H-1,2,4-triazole] | < 1000 nM
CC(C)(C)Oc1ccc(C(=O)n2nc(Nc3ccc(OCCCN4CCCC4)cc3)nc2N)cc1 [compound #15, 5-Amino-3-[4-[3-(pyrrolidin-1-yl)propoxy]phenylamino]-1-(4-(tert-butoxy)phenyl)carbonyl-1H-1,2,4-triazole] | < 1000 nM
CC(C)(C)Oc1cccc(C(=O)n2nc(Nc3ccc(OCCN4CCCC4)cc3)nc2N)c1 [compound #18, 5-Amino-3-[4-[2-(pyrrolidin-1-yl)ethoxy]phenylamino]-1-(3-(tert-butoxy)phenyl)carbonyl-1H-1,2,4-triazole] | < 1000 nM
